Test results as given in patent publication US20160272645A1, “Heterocyclic Compounds and Methods of Use” (MEDIVATION TECHNOLOGIES, INC., priority 2013, published 2016).

What was measured:
Type in all cases: biochemical
PI3Kδ = target: T1, PI3Kδ (Homo sapiens, UniProt O00329); test: PI3Kδ kinase profiling, HTRF PIP3 displacement assay (Reaction Biology); conditions: ATP 10 μM; for inhibition at 0.1 µM: compound 0.1 μM, read-out: PI3Kδ @ 0.1 μM (% Inh); for inhibition at 0.01 µM: compound 0.01 μM, read-out: PI3Kδ @ 0.01 μM (% Inh)
T1 construct: purchased Reaction Biology Corporation

BMX/ETK = target: T2, BMX/ETK (Homo sapiens, UniProt P51813); test: BMX/ETK kinase profiling (BTK protocol); conditions: compound 0.3 μM; read-out: BMX/ETK @ 0.3 μM (% Inh)
T2 construct: purchased Reaction Biology Corporation
T2 sequence (P51813 1-675): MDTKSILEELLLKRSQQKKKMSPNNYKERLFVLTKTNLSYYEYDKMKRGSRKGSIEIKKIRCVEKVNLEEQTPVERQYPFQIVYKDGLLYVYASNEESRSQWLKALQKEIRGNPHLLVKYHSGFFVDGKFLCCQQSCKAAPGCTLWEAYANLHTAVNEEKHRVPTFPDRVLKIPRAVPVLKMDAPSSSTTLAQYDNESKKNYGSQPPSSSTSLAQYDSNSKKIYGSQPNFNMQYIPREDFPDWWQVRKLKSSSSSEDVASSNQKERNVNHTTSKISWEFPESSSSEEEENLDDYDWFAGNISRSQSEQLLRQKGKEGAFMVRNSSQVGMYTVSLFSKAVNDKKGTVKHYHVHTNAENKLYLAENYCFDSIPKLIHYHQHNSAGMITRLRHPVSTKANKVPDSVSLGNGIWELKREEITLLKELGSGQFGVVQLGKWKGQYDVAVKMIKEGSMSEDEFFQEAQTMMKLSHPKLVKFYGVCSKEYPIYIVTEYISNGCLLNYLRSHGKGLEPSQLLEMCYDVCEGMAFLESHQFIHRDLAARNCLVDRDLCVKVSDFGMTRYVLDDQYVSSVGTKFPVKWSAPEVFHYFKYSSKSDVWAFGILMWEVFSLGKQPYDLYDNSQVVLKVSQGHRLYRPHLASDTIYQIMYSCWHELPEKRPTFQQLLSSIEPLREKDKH
Description: (§1) BTK assay: In vitro profiling protein kinases was performed using the “HotSpot” assay platform. Briefly, specific kinase/substrate pairs along with required cofactors were prepared in reaction buffer. Compounds were prepared as 10 mM stock solutions in DMSO. Compounds were delivered into the reaction, followed 15-20 minutes later by addition of a mixture of ATP (Sigma, St. Louis Mo.) and ^33P ATP (Perkin Elmer, Waltham Mass.) to a final concentration of 10 μM. Reactions were carried out at RT for 120 min, followed by spotting of the reactions onto P81 ion exchange filter paper (Whatman Inc., Piscataway, N.J.). Unbound phosphate was removed by extensive washing of filters in 0.75% Phosphoric acid. […] ICso values and curve fits were obtained using Prism (GraphPad Software). Buffer Conditions: 20 mM Hepes (pH 7.5), 10 mM MgCl2, 1 mM EGTA, 0.02% Brij35, 0.02 mg/mL BSA, 0.1 mM Na3VO4, 2 mM DTT, 1% DMSO.
(§2) Compounds of the invention were profiled in a 10 dose IC50 panel against BMX/ETK, ITK and TEC kinases, provided by Reaction Biology Corporation, applied to the BTK protocol provided in Example B1.

PI3Kγ = target: T3, PI3Kγ (Homo sapiens, UniProt P48736); test: PI3K isoform profiling, PI3Kγ (PI3Kδ protocol); conditions: for IC50: 10 dose IC50; for inhibition at 0.3 µM: compound 0.3 μM, read-out: PI3Kγ @ 0.3 μM (% Inh)
T3 construct: purchased Reaction Biology Corporation
Description: PI3Kδ assay: The PIP3 product is detected by displacement of biotin-PIP3 from an energy transfer complex consisting of Europium labeled anti-GST monoclonal antibody, a GST-tagged pleckstrin homology (PH) domain, biotinylated PIP3 and Streptavidin-Allophycocyanin (APC). Excitation of Europium in the complex results in an energy transfer to the APC and a fluorescent emission at 665 nm. The PIP3 product formed by PI3-Kinase (h) activity displaces biotin-PIP3 from the complex resulting in a loss of energy transfer and thus a decrease in signal. This is a 3-step reaction: First, the kinase reaction with PIP2 substrate is carried out in the presence of ATP (10 μM), and the reaction is quenched with stop Solution, and then finally detect by adding Detection Mixture followed by incubation (10 min). Reaction procedure: 1) Prepare substrate in freshly prepared Reaction Buffer. 2) Deliver kinase into the substrate solution and gently mix. 3) Deliver compounds in 100% DMSO (1 μM) into the kinase reaction mixture by Acoustic technology (Echo550; nanoliter range), incubate for 10 min at RT. 4) Deliver ATP into the reaction mixture to initiate the reaction. 5) Incubate for 30 min at 30° C. 6) Quench the reaction with Stop Solution. 7) Add Detection Mixture, and incubate for overnight. 8) Measure HTRF: Ex=320 nm, ratio of Em=615 nm and Em=665 nm. The emission ratio is converted into μM PIP3 production based on PIP3 standard curves. The nonlinear regression to obtain the standard curve and IC50 values are performed using Graphpad Prism software. Assay Buffer: HEPES 50 mM (pH7.0), NaN3 0.02%, BSA 0.01%, Orthovanadate 0.1 mM, 1% DMSO. Detection buffer: HEPES 10 mM (pH7.0), BSA 0.02%, KF 0.16 M, EDTA 4 mM. Substrate: 10 μM PIP2 substrate (PI(4,5)P2).
Compounds of the invention were profiled in a 10 dose IC50 panel against PI3Kα, PI3Kβ, and PI3Kγ kinases, provided by Reaction Biology Corporation, applied to the PI3Kδ protocol provided in Example B1.

ITK = target: T4, ITK (Homo sapiens, UniProt Q08881); test: ITK kinase profiling (BTK protocol); conditions: compound 0.3 μM; read-out: ITK @ 0.3 μM (% Inh)
T4 construct: purchased Reaction Biology Corporation
T4 sequence (Q08881 1-620): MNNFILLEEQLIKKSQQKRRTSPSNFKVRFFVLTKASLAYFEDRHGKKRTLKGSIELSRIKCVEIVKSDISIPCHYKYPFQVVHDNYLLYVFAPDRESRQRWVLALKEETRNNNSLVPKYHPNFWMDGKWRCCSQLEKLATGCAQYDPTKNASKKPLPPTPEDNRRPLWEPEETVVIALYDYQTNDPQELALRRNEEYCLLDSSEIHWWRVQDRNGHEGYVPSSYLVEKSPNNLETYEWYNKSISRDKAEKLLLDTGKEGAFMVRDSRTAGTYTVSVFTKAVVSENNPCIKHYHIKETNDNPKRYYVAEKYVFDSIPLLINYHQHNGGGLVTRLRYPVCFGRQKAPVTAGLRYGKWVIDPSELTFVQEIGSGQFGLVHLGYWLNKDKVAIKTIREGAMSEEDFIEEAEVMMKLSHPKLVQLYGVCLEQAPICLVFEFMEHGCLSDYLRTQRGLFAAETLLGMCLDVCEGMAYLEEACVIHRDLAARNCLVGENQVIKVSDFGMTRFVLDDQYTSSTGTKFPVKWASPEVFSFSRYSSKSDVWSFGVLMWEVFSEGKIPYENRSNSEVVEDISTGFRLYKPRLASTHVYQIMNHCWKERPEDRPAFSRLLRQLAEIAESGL
Description: as §1, §2

T3 sequence (P48736 whole entry, canonical isoform): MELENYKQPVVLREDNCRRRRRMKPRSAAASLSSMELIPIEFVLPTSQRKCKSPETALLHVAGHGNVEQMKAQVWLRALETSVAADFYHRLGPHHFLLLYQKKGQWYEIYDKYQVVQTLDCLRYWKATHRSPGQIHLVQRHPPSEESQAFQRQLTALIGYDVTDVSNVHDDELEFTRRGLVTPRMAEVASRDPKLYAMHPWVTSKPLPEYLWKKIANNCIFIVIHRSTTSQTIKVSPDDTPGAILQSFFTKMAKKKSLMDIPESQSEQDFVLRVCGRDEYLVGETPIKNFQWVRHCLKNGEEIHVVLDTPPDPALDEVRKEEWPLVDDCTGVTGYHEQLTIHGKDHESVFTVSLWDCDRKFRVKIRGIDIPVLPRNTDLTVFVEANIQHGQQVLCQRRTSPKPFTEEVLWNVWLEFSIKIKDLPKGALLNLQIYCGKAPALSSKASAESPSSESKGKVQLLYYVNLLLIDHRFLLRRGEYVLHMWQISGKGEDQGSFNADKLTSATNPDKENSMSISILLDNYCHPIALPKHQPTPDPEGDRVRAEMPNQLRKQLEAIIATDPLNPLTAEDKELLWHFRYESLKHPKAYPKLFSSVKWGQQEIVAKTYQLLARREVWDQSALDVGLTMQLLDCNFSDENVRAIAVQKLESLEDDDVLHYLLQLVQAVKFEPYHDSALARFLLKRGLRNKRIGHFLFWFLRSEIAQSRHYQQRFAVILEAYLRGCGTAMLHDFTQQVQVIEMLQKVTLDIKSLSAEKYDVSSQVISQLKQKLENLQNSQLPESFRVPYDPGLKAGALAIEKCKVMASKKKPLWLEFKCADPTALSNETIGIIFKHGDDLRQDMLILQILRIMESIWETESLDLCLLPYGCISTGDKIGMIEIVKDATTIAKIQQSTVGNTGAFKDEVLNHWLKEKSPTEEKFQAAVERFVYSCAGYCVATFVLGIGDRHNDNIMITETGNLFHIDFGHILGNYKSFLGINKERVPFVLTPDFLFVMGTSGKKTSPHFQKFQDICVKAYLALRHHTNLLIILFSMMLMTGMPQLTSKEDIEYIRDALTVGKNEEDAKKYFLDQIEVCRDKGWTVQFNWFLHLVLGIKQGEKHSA
T1 sequence (O00329 whole entry): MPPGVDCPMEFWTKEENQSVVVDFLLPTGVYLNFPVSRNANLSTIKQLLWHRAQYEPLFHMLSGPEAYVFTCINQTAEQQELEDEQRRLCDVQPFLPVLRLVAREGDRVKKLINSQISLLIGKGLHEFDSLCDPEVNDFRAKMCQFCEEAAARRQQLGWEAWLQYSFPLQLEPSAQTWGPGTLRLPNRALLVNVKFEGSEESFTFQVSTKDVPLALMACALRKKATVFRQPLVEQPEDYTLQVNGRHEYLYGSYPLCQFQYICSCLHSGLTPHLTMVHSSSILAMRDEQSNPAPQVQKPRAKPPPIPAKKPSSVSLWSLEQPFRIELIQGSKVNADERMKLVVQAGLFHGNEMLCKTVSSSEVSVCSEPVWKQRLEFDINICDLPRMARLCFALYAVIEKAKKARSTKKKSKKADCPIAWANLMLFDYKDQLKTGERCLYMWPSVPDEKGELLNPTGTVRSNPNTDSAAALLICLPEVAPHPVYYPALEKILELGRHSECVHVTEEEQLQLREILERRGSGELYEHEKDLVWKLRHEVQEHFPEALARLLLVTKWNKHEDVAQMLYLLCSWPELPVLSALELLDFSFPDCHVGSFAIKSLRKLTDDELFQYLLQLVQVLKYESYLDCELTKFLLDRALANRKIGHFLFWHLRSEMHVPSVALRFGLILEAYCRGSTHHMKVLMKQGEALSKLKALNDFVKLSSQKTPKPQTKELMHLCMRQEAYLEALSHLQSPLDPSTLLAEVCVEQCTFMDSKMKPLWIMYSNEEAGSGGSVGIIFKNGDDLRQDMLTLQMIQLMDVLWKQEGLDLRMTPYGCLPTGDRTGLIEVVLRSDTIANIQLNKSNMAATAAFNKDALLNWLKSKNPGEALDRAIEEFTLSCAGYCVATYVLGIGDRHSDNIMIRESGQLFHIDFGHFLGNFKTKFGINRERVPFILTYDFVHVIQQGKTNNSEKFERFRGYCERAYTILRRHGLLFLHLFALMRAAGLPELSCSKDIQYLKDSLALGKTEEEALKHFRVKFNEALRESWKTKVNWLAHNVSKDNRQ
T1 sequence (P27986 whole entry partner): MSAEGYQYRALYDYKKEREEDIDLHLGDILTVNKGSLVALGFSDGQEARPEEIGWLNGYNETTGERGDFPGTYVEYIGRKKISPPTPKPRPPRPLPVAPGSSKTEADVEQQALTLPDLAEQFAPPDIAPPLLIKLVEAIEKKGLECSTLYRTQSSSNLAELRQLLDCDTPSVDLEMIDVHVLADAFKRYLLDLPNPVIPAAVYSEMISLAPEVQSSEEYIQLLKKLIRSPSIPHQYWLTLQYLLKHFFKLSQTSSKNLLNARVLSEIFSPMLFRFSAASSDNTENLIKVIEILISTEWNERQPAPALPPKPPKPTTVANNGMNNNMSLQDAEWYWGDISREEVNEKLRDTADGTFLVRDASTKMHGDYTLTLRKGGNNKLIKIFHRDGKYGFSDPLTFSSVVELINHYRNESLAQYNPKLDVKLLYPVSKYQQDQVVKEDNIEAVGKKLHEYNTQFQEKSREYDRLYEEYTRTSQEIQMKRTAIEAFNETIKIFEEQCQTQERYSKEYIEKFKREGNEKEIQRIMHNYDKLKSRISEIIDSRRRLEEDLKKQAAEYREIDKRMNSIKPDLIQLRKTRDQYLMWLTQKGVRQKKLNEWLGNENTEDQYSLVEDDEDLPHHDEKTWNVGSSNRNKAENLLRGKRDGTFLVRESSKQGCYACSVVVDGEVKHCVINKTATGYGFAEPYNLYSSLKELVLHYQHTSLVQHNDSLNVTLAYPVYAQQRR

| inhibition at 0.1 µM (PI3Kδ) [%] | inhibition at 0.3 µM (BMX/ETK) [%] | IC50 (PI3Kγ) [µM] | inhibition at 0.3 µM (PI3Kγ) [%] | inhibition at 0.3 µM (ITK) [%] | inhibition at 0.01 µM (PI3Kδ) [%] | SMILES |
| --- | --- | --- | --- | --- | --- | --- |
| 66.7 | 94.2 |  | 21.5 | 62.5 | 37.7 | C=CC(=O)N(CCn1nc(-c2cc(O)cc(F)c2)c2c(N)ncnc21)Cc1ccc(Cl)cc1 [Compound 12, N-{2-[4-amino-3-(3-fluoro-5-hydroxyphenyl)-1H-pyrazolo[3,4-d]pyrimidin-1-yl]ethyl}-N-[(4-chlorophenyl)methyl]prop-2-enamide] |
| 67.2 | 93 |  | -3.88 | 30.5 |  | C=CC(=O)N(CCn1nc(-c2cc(O)cc(F)c2)c2c(N)ncnc21)Cc1ccc(F)cc1 [Compound 10, N-{2-[4-amino-3-(3-fluoro-5-hydroxyphenyl)-1H-pyrazolo [3,4-d]pyrimidin-1-yl]ethyl}-N-[(4-fluorophenyl)methyl]prop-2-enamide] |
| 70.3 | 92.5 | 10.5 | 34.9 | 10.2 |  | C=CC(=O)N(CCn1nc(-c2cc(O)cc(F)c2)c2c(N)ncnc21)Cc1ccccc1 [Compound 5, N-(2-(4-amino-3-(3-fluoro-5-hydroxyphenyl)-1H-pyrazolo[3,4-d]pyrimidin-1-yl)ethyl)-N-benzylacrylamide] |

The next lines start with the compound.

| SMILES | inhibition at 0.1 µM (PI3Kδ) [%] | inhibition at 0.3 µM (BMX/ETK) [%] | IC50 (PI3Kγ) [µM] | inhibition at 0.3 µM (PI3Kγ) [%] | inhibition at 0.3 µM (ITK) [%] | inhibition at 0.01 µM (PI3Kδ) [%] |
| --- | --- | --- | --- | --- | --- | --- |
| C=CC(=O)N(CCn1nc(-c2cc(O)cc(F)c2)c2c(N)ncnc21)c1ccccc1 [Compound 2, N-(2-(4-amino-3-(3-fluoro-5-hydroxyphenyl)-1H-pyrazolo[3,4-d]pyrimidin-1-yl)ethyl)-N-phenylacrylamide] | 39.1 | 98.5 | 9.07 | -2.49 | 50.7 |  |
| C=CC(=O)N(CCn1nc(-c2cc(O)cc(F)c2)c2c(N)ncnc21)Cc1ccccc1F [Compound 11, N-[2-[4-amino-3-(3-fluoro-5-hydroxy-phenyl)pyrazolo[3,4-d]pyrimidin-1-yl]ethyl]-N-[(2-fluorophenyl)methyl]prop-2-enamide] | 54.2 | 93.5 |  | 21.4 | 34.7 |  |
| Nc1ncnc2c1c(-c1cc(O)cc(F)c1)nn2CCNc1ccccc1 [Compound 1, 3-(4-amino-1-(2-(phenylamino)ethyl)-1H-pyrazolo [3,4-d]pyrimidin-3-yl)-5-fluorophenol] |  | 43.5 |  | 49.7 | 0.06 |  |
| C=CC(=O)N(CCn1nc(-c2cc(O)c(F)c(F)c2)c2c(N)ncnc21)Cc1ccc(Cl)cc1 [Compound 16, N-{2-[4-amino-3-(3,4-difluoro-5-hydroxyphenyl)-1H-pyrazolo[3,4-d]pyrimidin-1-yl]ethyl}-N-[(4-chlorophenyl)methyl]prop-2-enamide] | 73 | 97.2 |  | 14.6 | 8.93 | 48.3 |
